PubChem BioAssay AID1788 (Vanderbilt High Throughput Screening Facility, 2009)
Active and inactive are the calls of the source. The rule behind the calls is not given here.

How the values were obtained:
Experiment in all cases: PubChem AID 1788
[1] = biological target: Mu-type opioid receptor (Homo sapiens) (UniProt P35372); settings: MDS Pharma lead profiling panel, radioligand binding; Opiate m (OP3, MOP) (human); at 10 µM; stronger effect = higher value
[2] = biological target: Neuropeptide Y receptor type 2 (Homo sapiens) (UniProt P49146); settings: MDS Pharma lead profiling panel, radioligand binding; Neuropeptide Y Y2 (human); at 10 µM; stronger effect = higher value
Chain of Neuropeptide Y receptor type 2 (Homo sapiens) (P49146 whole entry, looked up): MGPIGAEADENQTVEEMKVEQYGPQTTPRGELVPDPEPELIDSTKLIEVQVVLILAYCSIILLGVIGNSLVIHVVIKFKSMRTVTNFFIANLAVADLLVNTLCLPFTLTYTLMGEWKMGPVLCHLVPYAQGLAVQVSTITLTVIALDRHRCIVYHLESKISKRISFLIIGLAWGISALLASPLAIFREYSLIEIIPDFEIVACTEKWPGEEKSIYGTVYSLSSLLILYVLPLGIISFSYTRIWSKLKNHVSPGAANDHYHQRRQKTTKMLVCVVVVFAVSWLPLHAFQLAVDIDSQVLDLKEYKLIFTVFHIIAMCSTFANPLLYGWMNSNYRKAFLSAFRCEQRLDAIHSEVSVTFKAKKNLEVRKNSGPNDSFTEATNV

[3] = biological target: Estrogen receptor (Homo sapiens) (UniProt P03372); settings: MDS Pharma lead profiling panel, radioligand binding; Estrogen ER a (human); at 10 µM; stronger effect = higher value
Chain of Estrogen receptor (Homo sapiens) (P03372 whole entry, looked up): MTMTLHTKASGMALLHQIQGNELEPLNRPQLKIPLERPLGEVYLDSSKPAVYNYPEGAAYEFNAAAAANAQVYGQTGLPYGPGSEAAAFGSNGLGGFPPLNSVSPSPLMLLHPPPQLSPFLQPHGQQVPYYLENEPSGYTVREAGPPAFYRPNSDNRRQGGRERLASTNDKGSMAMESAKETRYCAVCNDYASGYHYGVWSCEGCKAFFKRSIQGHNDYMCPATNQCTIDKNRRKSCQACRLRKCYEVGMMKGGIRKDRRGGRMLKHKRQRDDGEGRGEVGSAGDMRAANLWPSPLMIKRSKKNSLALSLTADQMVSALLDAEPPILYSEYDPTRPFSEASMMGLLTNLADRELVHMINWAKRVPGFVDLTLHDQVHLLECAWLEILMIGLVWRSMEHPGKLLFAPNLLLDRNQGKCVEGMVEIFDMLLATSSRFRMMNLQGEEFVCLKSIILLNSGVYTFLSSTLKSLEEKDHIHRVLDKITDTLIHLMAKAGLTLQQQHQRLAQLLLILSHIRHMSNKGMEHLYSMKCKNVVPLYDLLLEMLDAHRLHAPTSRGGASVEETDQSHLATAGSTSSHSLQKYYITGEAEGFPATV

[4] = biological target: 5-hydroxytryptamine receptor 1A (Homo sapiens) (UniProt P08908); settings: MDS Pharma lead profiling panel, radioligand binding; Serotonin (5-Hydroxytryptamine) 5-HT1A (human); at 10 µM; stronger effect = higher value
Chain of 5-hydroxytryptamine receptor 1A (Homo sapiens) (P08908 whole entry, looked up): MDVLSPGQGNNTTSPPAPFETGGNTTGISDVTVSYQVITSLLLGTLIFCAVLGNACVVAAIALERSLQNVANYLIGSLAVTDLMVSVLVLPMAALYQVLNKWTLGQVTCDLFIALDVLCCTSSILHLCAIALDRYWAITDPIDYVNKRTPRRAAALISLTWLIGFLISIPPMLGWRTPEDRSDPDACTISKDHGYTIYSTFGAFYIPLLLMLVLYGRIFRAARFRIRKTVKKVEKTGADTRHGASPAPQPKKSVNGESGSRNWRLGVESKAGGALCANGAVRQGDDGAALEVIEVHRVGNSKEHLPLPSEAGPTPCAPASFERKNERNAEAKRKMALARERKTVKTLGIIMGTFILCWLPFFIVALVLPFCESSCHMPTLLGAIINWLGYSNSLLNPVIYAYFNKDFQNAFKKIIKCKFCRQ

Prostanoid EP4 (human) = settings: MDS Pharma lead profiling panel, radioligand binding, at 10 µM, stronger effect = higher value
[5] = biological target: Alpha-2A adrenergic receptor (Homo sapiens) (UniProt P08913); settings: MDS Pharma lead profiling panel, radioligand binding; Adrenergic a2A (human); at 10 µM; stronger effect = higher value
Chain of Alpha-2A adrenergic receptor (Homo sapiens) (P08913 whole entry, looked up): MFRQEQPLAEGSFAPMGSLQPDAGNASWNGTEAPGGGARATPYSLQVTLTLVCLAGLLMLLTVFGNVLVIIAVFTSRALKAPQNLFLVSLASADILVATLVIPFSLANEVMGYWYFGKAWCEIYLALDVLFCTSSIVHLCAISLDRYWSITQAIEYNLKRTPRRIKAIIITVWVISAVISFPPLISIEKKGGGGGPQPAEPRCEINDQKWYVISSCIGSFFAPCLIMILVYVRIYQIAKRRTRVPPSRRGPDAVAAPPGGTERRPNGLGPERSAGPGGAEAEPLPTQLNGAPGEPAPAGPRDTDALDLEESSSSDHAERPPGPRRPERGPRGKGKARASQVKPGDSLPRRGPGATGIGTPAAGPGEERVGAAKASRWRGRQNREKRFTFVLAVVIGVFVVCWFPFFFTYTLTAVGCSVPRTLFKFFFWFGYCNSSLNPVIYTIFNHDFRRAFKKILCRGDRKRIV

[6] = biological target: D(1A) dopamine receptor (Homo sapiens) (UniProt P21728); settings: MDS Pharma lead profiling panel, radioligand binding; Dopamine D1 (human); at 10 µM; stronger effect = higher value
Chain of D(1A) dopamine receptor (Homo sapiens) (P21728 whole entry, looked up): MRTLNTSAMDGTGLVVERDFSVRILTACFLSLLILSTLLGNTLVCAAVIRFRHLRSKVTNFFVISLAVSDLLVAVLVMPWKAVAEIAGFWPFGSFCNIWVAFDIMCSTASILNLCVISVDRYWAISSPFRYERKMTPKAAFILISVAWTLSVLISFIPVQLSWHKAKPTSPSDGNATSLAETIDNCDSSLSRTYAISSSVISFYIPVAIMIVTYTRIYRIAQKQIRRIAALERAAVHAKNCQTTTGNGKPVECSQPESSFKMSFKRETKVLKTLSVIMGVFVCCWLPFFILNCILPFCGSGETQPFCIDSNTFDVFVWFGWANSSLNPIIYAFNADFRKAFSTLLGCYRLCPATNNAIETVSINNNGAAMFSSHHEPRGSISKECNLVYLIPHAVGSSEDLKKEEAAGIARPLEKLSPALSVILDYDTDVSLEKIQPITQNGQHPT

Transporter, GABA (rat) = settings: MDS Pharma lead profiling panel, radioligand binding, at 10 µM, stronger effect = higher value
Melatonin MT1 (human) = settings: MDS Pharma lead profiling panel, radioligand binding, at 10 µM, stronger effect = higher value
Histamine H3 (human) = settings: MDS Pharma lead profiling panel, radioligand binding, at 10 µM, stronger effect = higher value
[7] = biological target: Muscarinic acetylcholine receptor M1 (Homo sapiens) (UniProt P11229); settings: MDS Pharma lead profiling panel, radioligand binding, at 10 µM, stronger effect = higher value
Chain of Muscarinic acetylcholine receptor M1 (Homo sapiens) (P11229 whole entry, looked up): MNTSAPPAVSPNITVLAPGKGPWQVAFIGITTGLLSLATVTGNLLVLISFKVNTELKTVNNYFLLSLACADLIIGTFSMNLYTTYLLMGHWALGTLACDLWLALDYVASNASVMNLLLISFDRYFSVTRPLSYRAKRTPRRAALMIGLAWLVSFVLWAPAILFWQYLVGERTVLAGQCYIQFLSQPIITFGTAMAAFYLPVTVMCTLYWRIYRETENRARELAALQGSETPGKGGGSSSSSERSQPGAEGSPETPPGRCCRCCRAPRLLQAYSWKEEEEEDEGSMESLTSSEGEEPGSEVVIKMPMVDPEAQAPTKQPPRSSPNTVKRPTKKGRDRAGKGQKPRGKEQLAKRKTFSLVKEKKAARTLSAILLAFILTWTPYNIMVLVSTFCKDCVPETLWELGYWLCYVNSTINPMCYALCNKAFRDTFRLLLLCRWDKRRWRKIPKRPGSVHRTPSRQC

Adrenergic a1B (rat) = settings: MDS Pharma lead profiling panel, radioligand binding, at 10 µM, stronger effect = higher value
Interleukin IL-1 (mouse) = settings: MDS Pharma lead profiling panel, radioligand binding, at 10 µM, stronger effect = higher value
[8] = biological target: D(3) dopamine receptor (Homo sapiens) (UniProt P35462); settings: MDS Pharma lead profiling panel, radioligand binding; Dopamine D3 (human); at 10 µM; stronger effect = higher value
Chain of D(3) dopamine receptor (Homo sapiens) (P35462 whole entry, looked up): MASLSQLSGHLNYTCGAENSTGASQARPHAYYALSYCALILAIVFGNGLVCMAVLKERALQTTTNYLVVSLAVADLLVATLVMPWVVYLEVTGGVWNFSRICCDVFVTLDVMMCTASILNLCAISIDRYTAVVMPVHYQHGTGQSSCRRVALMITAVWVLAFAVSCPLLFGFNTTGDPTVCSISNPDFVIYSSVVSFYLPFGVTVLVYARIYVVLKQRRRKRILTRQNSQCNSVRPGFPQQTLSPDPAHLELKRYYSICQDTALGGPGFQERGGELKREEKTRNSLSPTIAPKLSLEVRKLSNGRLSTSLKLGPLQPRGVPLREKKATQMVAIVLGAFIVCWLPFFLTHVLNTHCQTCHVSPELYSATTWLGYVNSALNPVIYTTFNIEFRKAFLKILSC

GABA B1A (human) = settings: MDS Pharma lead profiling panel, radioligand binding, at 10 µM, stronger effect = higher value
[9] = biological target: Delta-type opioid receptor (Homo sapiens) (UniProt P41143); settings: MDS Pharma lead profiling panel, radioligand binding; Opiate d (OP1, DOP) (human); at 10 µM; stronger effect = higher value
Chain of Delta-type opioid receptor (Homo sapiens) (P41143 whole entry, looked up): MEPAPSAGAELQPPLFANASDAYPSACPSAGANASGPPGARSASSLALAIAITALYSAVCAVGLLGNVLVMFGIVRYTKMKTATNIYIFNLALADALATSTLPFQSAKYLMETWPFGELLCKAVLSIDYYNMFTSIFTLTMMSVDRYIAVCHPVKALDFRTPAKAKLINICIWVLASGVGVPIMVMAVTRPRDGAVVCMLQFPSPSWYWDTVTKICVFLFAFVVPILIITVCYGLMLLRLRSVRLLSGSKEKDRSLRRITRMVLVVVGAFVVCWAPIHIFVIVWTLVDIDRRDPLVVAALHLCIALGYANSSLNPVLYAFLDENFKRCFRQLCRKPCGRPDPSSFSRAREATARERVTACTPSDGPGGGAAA

Tachykinin NK1 (human) = settings: MDS Pharma lead profiling panel, radioligand binding, at 10 µM, stronger effect = higher value
[10] = test system: Epidermal Growth Factor (EGF) (human); settings: MDS Pharma lead profiling panel, radioligand binding, at 10 µM, stronger effect = higher value
[11] = biological target: Muscarinic acetylcholine receptor M2 (Homo sapiens) (UniProt P08172); settings: MDS Pharma lead profiling panel, radioligand binding, at 10 µM, stronger effect = higher value
Chain of Muscarinic acetylcholine receptor M2 (Homo sapiens) (P08172 whole entry, looked up): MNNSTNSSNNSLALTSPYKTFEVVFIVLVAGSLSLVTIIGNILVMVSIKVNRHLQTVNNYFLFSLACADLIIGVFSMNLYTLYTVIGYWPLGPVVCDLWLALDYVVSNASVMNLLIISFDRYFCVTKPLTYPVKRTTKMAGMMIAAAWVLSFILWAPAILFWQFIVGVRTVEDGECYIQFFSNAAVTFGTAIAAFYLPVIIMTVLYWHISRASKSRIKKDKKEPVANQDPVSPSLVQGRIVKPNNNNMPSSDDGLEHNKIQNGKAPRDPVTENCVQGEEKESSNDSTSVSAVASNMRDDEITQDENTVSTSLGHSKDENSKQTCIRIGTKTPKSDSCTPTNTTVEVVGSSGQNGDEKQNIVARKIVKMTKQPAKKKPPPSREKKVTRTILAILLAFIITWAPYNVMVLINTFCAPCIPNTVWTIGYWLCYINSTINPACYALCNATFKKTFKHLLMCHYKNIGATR

Endothelin ETB (human) = settings: MDS Pharma lead profiling panel, radioligand binding, at 10 µM, stronger effect = higher value
Thyroid Hormone (rat) = settings: MDS Pharma lead profiling panel, radioligand binding, at 10 µM, stronger effect = higher value
[12] = test system: Vesicular inhibitory amino acid transporter (Rattus norvegicus) + Pro-epidermal growth factor (Homo sapiens) + Acetylcholine receptor subunit alpha (Homo sapiens) + Estrogen receptor (Homo sapiens) + Glucocorticoid receptor (Homo sapiens) + Sodium channel protein type 1 subunit alpha (Rattus norvegicus) + Beta-2 adrenergic receptor (Homo sapiens) + Muscarinic acetylcholine receptor M2 (Homo sapiens) + Beta-1 adrenergic receptor (Homo sapiens) + 5-hydroxytryptamine receptor 1A (Homo sapiens) + Alpha-2A adrenergic receptor (Homo sapiens) + Muscarinic acetylcholine receptor M1 (Homo sapiens) + Interleukin-1 receptor type 1 (Mus musculus) + D(2) dopamine receptor (Homo sapiens) + Androgen receptor (Rattus norvegicus) + Gamma-aminobutyric acid receptor subunit gamma-2 (Rattus norvegicus) + Muscarinic acetylcholine receptor M3 (Homo sapiens) + D(1A) dopamine receptor (Homo sapiens) + D(4) dopamine receptor (Homo sapiens) + Glutamate receptor ionotropic, kainate 1 (Rattus norvegicus) + Sodium-dependent noradrenaline transporter (Homo sapiens) + Endothelin receptor type B (Homo sapiens) + Alpha-1D adrenergic receptor (Homo sapiens) + Endothelin-1 receptor (Homo sapiens) + Substance-P receptor (Homo sapiens) + Neuropeptide Y receptor type 1 (Homo sapiens) + Adenosine receptor A2a (Homo sapiens) + B2 bradykinin receptor (Homo sapiens) + Adenosine receptor A1 (Homo sapiens) + Sodium-dependent serotonin transporter (Homo sapiens) + Neuronal acetylcholine receptor subunit alpha-3 (Homo …; settings: MDS Pharma lead profiling panel, radioligand binding; at 10 µM; stronger effect = higher value
[13] = biological target: Neuropeptide Y receptor type 1 (Homo sapiens) (UniProt P25929); settings: MDS Pharma lead profiling panel, radioligand binding; Neuropeptide Y Y1 (human); at 10 µM; stronger effect = higher value
[14] = test system: Serotonin (5-Hydroxytryptamine) 5-HT3 (human); settings: MDS Pharma lead profiling panel, radioligand binding, at 10 µM, stronger effect = higher value
Histamine H2 (human) = settings: MDS Pharma lead profiling panel, radioligand binding, at 10 µM, stronger effect = higher value
[15] = biological target: Potassium Channel K ATP (hamster) (UniProt P49658); settings: MDS Pharma lead profiling panel, radioligand binding, at 10 µM, stronger effect = higher value
Chain of Potassium Channel K ATP (hamster) (P49658 whole entry, looked up): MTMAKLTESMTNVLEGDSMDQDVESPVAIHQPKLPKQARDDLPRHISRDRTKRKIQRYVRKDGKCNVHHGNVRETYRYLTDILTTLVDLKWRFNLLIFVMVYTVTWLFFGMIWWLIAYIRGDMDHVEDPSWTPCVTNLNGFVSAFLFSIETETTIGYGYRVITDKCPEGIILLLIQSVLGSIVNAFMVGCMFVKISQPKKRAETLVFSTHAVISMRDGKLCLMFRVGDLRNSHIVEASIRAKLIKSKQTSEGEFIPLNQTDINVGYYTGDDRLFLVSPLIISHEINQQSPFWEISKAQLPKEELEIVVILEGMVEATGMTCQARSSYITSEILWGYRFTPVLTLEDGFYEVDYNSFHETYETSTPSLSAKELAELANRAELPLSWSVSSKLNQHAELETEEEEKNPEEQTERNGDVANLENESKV

Measured: inhibition

Chain of Mu-type opioid receptor (Homo sapiens) (P35372 whole entry, looked up): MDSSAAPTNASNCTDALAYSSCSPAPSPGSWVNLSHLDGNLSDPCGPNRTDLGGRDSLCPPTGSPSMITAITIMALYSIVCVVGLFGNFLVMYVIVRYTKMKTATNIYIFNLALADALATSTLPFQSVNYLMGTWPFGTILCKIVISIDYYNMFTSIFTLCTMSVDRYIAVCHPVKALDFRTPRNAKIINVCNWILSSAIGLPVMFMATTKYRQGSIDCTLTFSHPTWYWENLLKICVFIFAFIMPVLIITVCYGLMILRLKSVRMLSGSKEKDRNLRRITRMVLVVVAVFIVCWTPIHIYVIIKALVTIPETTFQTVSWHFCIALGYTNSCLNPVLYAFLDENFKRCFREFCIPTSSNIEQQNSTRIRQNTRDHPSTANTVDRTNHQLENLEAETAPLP

CCOC(=O)N1CCC(NCCNC(=O)c2ccccc2C)CC1
inactive: [1] -4% | [2] 12% | [3] 5% | [4] 25% | Prostanoid EP4 (human) 3% | [5] 22% | [6] 5% | Transporter, GABA (rat) 3% | Melatonin MT1 (human) 25% | Histamine H3 (human) 11% | [7] 19% | Adrenergic a1B (rat) 20% | Interleukin IL-1 (mouse) -1% | [8] 48% | GABA B1A (human) -22% | [9] -7% | Tachykinin NK1 (human) -8% | [10] -3% | [11] 1% | Endothelin ETB (human) -4% | Thyroid Hormone (rat) -8% | [12] -8% | [13] 0% | [14] 2% | Histamine H2 (human) 27% | [15] -9%
